Each block holds one compound with its values, some of them ahead of it. Active and inactive are the calls of the source. The rule behind the calls is not given here.
Columns and labels:
[1] = target: T1, Arylamine N-acetyltransferase 2 (Mus musculus, UniProt P50295); assay: Inhibition of mouse recombinant NAT2 assessed as hydrolysis of acetyl coA using PABA as substrate by Ellman's method
T1 sequence (P50295 whole entry): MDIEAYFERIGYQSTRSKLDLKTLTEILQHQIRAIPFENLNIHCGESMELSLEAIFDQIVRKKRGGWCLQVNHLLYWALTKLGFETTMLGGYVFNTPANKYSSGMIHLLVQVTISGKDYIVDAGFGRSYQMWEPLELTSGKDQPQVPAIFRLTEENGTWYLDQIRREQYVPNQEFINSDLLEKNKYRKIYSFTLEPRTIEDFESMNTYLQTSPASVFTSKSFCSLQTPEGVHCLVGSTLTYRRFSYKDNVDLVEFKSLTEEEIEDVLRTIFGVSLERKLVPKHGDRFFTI

[2] = Cytotoxicity against mouse macrophage at 10 ug/ml after 72 hrs by trypan blue exclusion method; type: cell-based
Mycobacterium marinum [3] = assay: Inhibition of Mycobacterium marinum recombinant NAT using isoniazid as substrate at 30 uM
[4] = target: T2, Arylamine N-acetyltransferase (Pseudomonas aeruginosa (strain ATCC 15692 / PAO1 / 1C / PRS 101 / LMG12228), UniProt Q9HUY3); conditions: read-out: INH
T2 sequence (Q9HUY3 whole entry): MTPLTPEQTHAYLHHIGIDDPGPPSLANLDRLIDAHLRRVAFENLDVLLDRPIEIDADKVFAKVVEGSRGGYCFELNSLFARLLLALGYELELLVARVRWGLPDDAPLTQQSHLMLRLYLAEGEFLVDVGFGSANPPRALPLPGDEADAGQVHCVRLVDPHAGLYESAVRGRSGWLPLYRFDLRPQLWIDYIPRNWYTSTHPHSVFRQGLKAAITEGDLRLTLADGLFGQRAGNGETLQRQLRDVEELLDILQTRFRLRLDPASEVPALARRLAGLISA
Description: Inhibition of Pseudomonas aeruginosa recombinant NAT using isoniazid as substrate at 30 uM

[5] = target: T3, Arylamine N-acetyltransferase 1 (Homo sapiens, UniProt P18440); assay: Inhibition of human recombinant NAT1 assessed as hydrolysis of acetyl coA using PABA as substrate by Ellman's method
T3 sequence (P18440 whole entry): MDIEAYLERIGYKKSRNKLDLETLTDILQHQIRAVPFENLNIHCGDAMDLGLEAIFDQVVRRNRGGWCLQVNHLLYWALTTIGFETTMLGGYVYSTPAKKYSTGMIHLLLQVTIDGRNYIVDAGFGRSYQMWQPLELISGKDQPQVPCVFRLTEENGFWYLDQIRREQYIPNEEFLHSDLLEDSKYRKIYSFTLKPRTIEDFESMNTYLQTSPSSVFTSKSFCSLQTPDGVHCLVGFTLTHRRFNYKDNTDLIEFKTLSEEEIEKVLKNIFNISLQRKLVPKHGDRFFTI

ZR75 = assay: Inhibition of NAT in human ZR75 cell lysate assessed as acetylation of aryl amine using PABA as substrate at 30 uM; type: cell-free
[6] = target: T4, Arylamine N-acetyltransferase 2 (NAT2) (Homo sapiens, UniProt P11245); assay: Inhibition of human recombinant NAT2 using 5-aminosalicylic acid as substrate at 30 uM; conditions: recombinant NAT2, probe 5-aminosalicylic acid
T4 sequence (P11245 whole entry): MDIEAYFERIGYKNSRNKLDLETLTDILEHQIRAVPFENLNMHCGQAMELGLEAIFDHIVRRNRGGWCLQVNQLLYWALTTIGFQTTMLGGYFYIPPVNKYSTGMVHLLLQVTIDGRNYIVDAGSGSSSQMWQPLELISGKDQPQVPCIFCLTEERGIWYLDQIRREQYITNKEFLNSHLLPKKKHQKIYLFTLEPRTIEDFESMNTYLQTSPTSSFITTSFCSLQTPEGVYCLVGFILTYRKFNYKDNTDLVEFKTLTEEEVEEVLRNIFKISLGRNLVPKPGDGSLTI

Mycobacterium marinum [7] = conditions: 30 uM
Description: Inhibition of Mycobacterium marinum recombinant NAT using 5-aminosalicylic acid as substrate at 30 uM

[8] = target: T2, Arylamine N-acetyltransferase; assay: Inhibition of Pseudomonas aeruginosa recombinant NAT using 5-aminosalicylic acid as substrate at 30 uM; conditions: read-out: INH
[9] = target: T1, Arylamine N-acetyltransferase 2; assay: Inhibition of mouse recombinant NAT2 using PABA as substrate at 30 uM
[10] = target: T5, Arylamine N-acetyltransferase 2 (NAT2) (Mus musculus, UniProt P50295); assay: Inhibition of mouse recombinant NAT2 using 5-aminosalicylic acid as substrate at 30 uM; conditions: recombinant NAT2, probe 5-aminosalicylic acid
T5 sequence (P50295 whole entry): T1 sequence (P50295 whole entry)

inhibition (Mycobacterium marinum [3]): < 40% | inhibition at 30 µM [4]: < 40%
Compound: O=C1NC(=S)S/C1=C\c1ccccc1O
Activity [2]: < 80%

inhibition (Mycobacterium marinum [3]): < 40% | inhibition at 30 µM [4]: < 40% | IC50 [5]: 16.9 µM
Compound: O=C1NC(=S)S/C1=C\c1ccc(O)cc1

IC50 [1]: 16.5 µM
Compound: O=C1NC(=S)S/C1=C\c1ccccc1-c1ccccc1

IC50 [1]: 25 µM
Compound: C/C(=C1/SC(=S)NC1=O)c1ccccc1

IC50 [1]: > 30 µM
Compound: O=C1NC(=S)S/C1=C\c1ccccc1F

inhibition (Mycobacterium marinum [3]): < 40% | inhibition at 30 µM [4]: < 40% | IC50 [5]: 17.6 µM
Compound: COc1ccccc1/C=C1\SC(=S)NC1=O

IC50 [1]: 6.7 µM
Compound: O=C1NC(=S)S/C1=C\c1cccc(F)c1

inhibition (Mycobacterium marinum [3]): < 40% | inhibition at 30 µM [4]: < 40% | IC50 [5]: 4.7 µM
Compound: O=C1NC(=S)S/C1=C\c1ccc(Cl)cc1

IC50 [1]: 24.2 µM
Compound: O=C1NC(=S)S/C1=C\Cc1ccccc1

inhibition (Mycobacterium marinum [3]): < 40% | inhibition at 30 µM [4]: < 40% | IC50 [5]: > 30 µM
Compound: COc1ccc(/C=C2\SC(=S)NC2=O)cc1

inhibition (Mycobacterium marinum [3]): < 40% | inhibition at 30 µM [4]: < 40% | IC50 [5]: 12.9 µM
Compound: O=C1NC(=S)S/C1=C\c1ccc(F)cc1

IC50 [1]: 26.9 µM
Compound: O=C1NC(=S)S/C1=C\c1ccc2ccccc2c1

inhibition (Mycobacterium marinum [3]): < 40% | inhibition at 30 µM [4]: < 40%
Compound: O=C1NC(=S)S/C1=C\c1cccc(O)c1
Activity [2]: < 80%

inhibition (Mycobacterium marinum [3]): < 40% | inhibition at 30 µM [4]: < 40%
Compound: Cc1cccc(/C=C2\SC(=S)NC2=O)c1

inhibition (Mycobacterium marinum [3]): < 40% | inhibition at 30 µM [4]: < 40% | inhibition at 30 µM [6]: 46% | inhibition (Mycobacterium marinum [7]): 40% | inhibition at 30 µM [8]: 52% | Activity [9]: Active | inhibition at 30 µM [10]: 104%
Compound: O=C1NC(=S)S/C1=C\c1cc(I)c(O)c(I)c1
Activity [2]: > 80% | Activity (ZR75): Active

inhibition at 30 µM [4]: < 40%
Compound: Cc1ccccc1/C=C1\SC(=S)NC1=O

inhibition (Mycobacterium marinum [3]): < 40% | inhibition at 30 µM [4]: < 40%
Compound: O=C1NC(=S)S/C1=C\c1ccc(-c2ccccc2)cc1

IC50 [1]: 7.7 µM
Compound: CCC/C=C1\SC(=S)NC1=O

IC50 [1]: 10.2 µM
Compound: CCCCCCCCC/C=C1\SC(=S)NC1=O

inhibition (Mycobacterium marinum [3]): < 40% | inhibition at 30 µM [4]: < 40%
Compound: O=C1NC(=S)S/C1=C\c1ccc(Cl)c(Cl)c1

inhibition at 30 µM [4]: < 40% | IC50 [5]: > 30 µM
Compound: Cc1ccc(/C=C2\SC(=S)NC2=O)cc1

IC50 [1]: > 30 µM
Compound: O=C1NC(=S)S/C1=C\c1cccc2ccccc12

IC50 [1]: > 30 µM
Compound: Cc1cccc(/C=C2\SC(=S)N(C)C2=O)c1

IC50 [1]: 6.8 µM
Compound: CCCCCCC/C=C1\SC(=S)NC1=O

IC50 [1]: 1.3 µM
Compound: CCCCC/C=C1\SC(=S)NC1=O

IC50 [1]: 20.7 µM
Compound: CN1C(=O)/C(=C/c2ccc(F)cc2)SC1=S

IC50 [1]: > 30 µM
Compound: O=C1NC(=S)S/C1=C\c1ccc(Br)cc1

inhibition (Mycobacterium marinum [3]): < 40% | inhibition at 30 µM [4]: < 40% | IC50 [5]: > 30 µM
Compound: COc1cccc(/C=C2\SC(=S)NC2=O)c1

The next lines start with the compound.

Compound: CN1C(=O)/C(=C/c2ccccc2F)SC1=S
IC50 [1]: 11.8 µM

Compound: COc1ccc(/C=C2\SC(=S)N(C)C2=O)cc1
IC50 [1]: 1 µM

Compound: CN1C(=O)/C(=C/c2ccccc2O)SC1=S
IC50 [1]: 20.1 µM

Compound: CN1C(=O)/C(=C/Cc2ccccc2)SC1=S
IC50 [1]: > 30 µM

Compound: C/C(=C1/SC(=S)N(C)C1=O)c1ccccc1
IC50 [1]: > 30 µM

Compound: Cc1ccc(/C=C2\SC(=S)N(C)C2=O)cc1
IC50 [1]: > 30 µM

Compound: CN1C(=O)/C(=C/c2ccc3ccccc3c2)SC1=S
IC50 [1]: 4.7 µM

Compound: COc1ccccc1/C=C1\SC(=S)N(C)C1=O
IC50 [1]: > 30 µM

Compound: CN1C(=O)/C(=C/c2ccccc2-c2ccccc2)SC1=S
IC50 [1]: 10.1 µM

Compound: Cc1ccccc1/C=C1\SC(=S)N(C)C1=O
IC50 [1]: 4.4 µM

Compound: NN1C(=O)/C(=C/c2ccc(Cl)cc2)SC1=S
IC50 [1]: 5.7 µM

Compound: CN1C(=O)/C(=C/c2cccc(F)c2)SC1=S
IC50 [1]: 7.3 µM

Compound: NN1C(=O)/C(=C/c2cc(I)c(O)c(I)c2)SC1=S
Activity [2]: < 80%

Compound: NN1C(=O)/C(=C/c2ccc(O)cc2)SC1=S
IC50 [1]: 10.1 µM

Compound: CN1C(=O)/C(=C/c2ccc(-c3ccccc3)cc2)SC1=S
IC50 [1]: 5.5 µM

Compound: O=C1NC(=O)/C(=C/c2ccc3ccccc3c2)S1
IC50 [1]: > 30 µM

Compound: CN1C(=O)/C(=C/c2ccccc2)SC1=S
IC50 [1]: > 30 µM

Compound: COc1cccc(/C=C2\SC(=S)N(C)C2=O)c1
IC50 [1]: 13.6 µM

Compound: CN1C(=O)/C(=C/c2ccc(O)cc2)SC1=S
IC50 [1]: 14 µM

Compound: NN1C(=O)/C(=C/c2ccccc2O)SC1=S
Activity [2]: < 80% | IC50 [1]: 5.1 µM

Compound: CN1C(=O)/C(=C/c2ccc(Cl)cc2)SC1=S
IC50 [1]: 9.4 µM

Compound: NN1C(=O)/C(=C/c2ccccc2-c2ccccc2)SC1=S
Activity [2]: < 80% | IC50 [1]: 0.3 µM

Compound: CN1C(=O)/C(=C/c2cccc3ccccc23)SC1=S
IC50 [1]: > 30 µM
